# Experimental data reported in the NIST ThermoML archive (doi:10.1021/je200121f).
# “And” between values parts separate entries of the source, which are not always exact repeats. Equal entries are not always repeated. Numbers after ± are expanded uncertainties.
# Tests used:
# [1] = xn = mol fraction of the nth substance listed; details: x1 = 1; for surface tension liquid-gas: Ring tensiometer; for viscosity / speed of sound / mass density: 101 kPa, Liquid; for viscosity: Capillary tube (Ostwald / Ubbelohde) method; for speed of sound: Sing-around technique in a fixed-path interferometer; for mass density: Vibrating tube method
# [2] = refractive index (Na D-line) (dimensionless); xn = mol fraction of the nth substance listed; details: 101 kPa, Liquid, Standard Abbe refractometry, x1 = 1
# [3] = refractive index (Na D-line) (dimensionless); details: 101.33 kPa, Liquid, Standard Abbe refractometry
# [4] = for surface tension liquid-gas: Ring tensiometer; for viscosity / speed of sound / mass density: 101 kPa, Liquid; for viscosity: Capillary tube (Ostwald / Ubbelohde) method; for speed of sound: Sing-around technique in a fixed-path interferometer; for mass density: Vibrating tube method
SMILES,surface tension liquid-gas ([1]; 293.15 K),viscosity ([1]; 293.15 K),speed of sound ([1]; 293.15 K),mass density ([1]; 293.15 K),surface tension liquid-gas ([1]; 303.15 K),viscosity ([1]; 303.15 K),speed of sound ([1]; 303.15 K),mass density ([1]; 303.15 K),surface tension liquid-gas ([1]; 313.15 K),viscosity ([1]; 313.15 K),speed of sound ([1]; 313.15 K),mass density ([1]; 313.15 K),surface tension liquid-gas ([1]; 323.15 K),viscosity ([1]; 323.15 K),speed of sound ([1]; 323.15 K),refractive index ([3]; 323.15 K),surface tension liquid-gas ([4]; 323.15 K),viscosity ([4]; 323.15 K),speed of sound ([4]; 323.15 K),mass density ([4]; 323.15 K),also measured
CN1CCCC1=O [N-methylpyrrolidone] + CC(O)CNCC(C)O,42.7 ± 0.6 mN/m,1.899 ± 0.018 mPa·s,1567.9 ± 2.9 m/s,1033.6 ± 0.5 kg/m3,41.3 ± 0.6 mN/m,1.592 ± 0.015 mPa·s,1529.7 ± 2.9 m/s,1024.7 ± 0.5 kg/m3,41 ± 0.6 mN/m,1.353 ± 0.013 mPa·s,1491.2 ± 2.9 m/s,1015.7 ± 0.5 kg/m3,39.8 ± 0.6 mN/m,1.17 ± 0.011 mPa·s,1454.6 ± 2.9 m/s,,,,,,mass density ([1]; 323.15 K): 1006.8 ± 0.5 kg/m3; refractive index ([2]; 293.15 K): 1.4688 ± 0.0005; refractive index ([2]; 303.15 K): 1.4657 ± 0.0006; refractive index ([2]; 313.15 K): 1.4621 ± 0.0006; refractive index ([2]; 323.15 K): 1.4579 ± 0.0006
CN1CCCC1=O [N-methylpyrrolidone] + C[C@H](O)CN,42.7 ± 0.6 mN/m,1.899 ± 0.018 mPa·s,1567.9 ± 2.9 m/s,1033.6 ± 0.5 kg/m3,41.5 ± 0.6 mN/m,1.592 ± 0.015 mPa·s,1529.7 ± 2.9 m/s,1024.7 ± 0.5 kg/m3,40.8 ± 0.6 mN/m,1.353 ± 0.013 mPa·s,1491.2 ± 2.9 m/s,1015.7 ± 0.5 kg/m3,40 ± 0.6 mN/m,1.17 ± 0.011 mPa·s,1454.6 ± 2.9 m/s,,,,,,mass density ([1]; 323.15 K): 1006.8 ± 0.5 kg/m3; refractive index ([2]; 293.15 K): 1.4688 ± 0.0005; refractive index ([2]; 303.15 K): 1.4657 ± 0.0006; refractive index ([2]; 313.15 K): 1.4621 ± 0.0006; refractive index ([2]; 323.15 K): 1.4579 ± 0.0006
CN1CCCC1=O [N-methylpyrrolidone],,,,,,,,,,,,,,,,1.4579 ± 0.0006,40 ± 0.6 mN/m and 39.8 ± 0.6 mN/m,1.17 ± 0.011 mPa·s,1454.6 ± 2.9 m/s,1006.8 ± 0.5 kg/m3,refractive index ([3]; 293.15 K): 1.4688 ± 0.0005; refractive index ([3]; 303.15 K): 1.4657 ± 0.0006; refractive index ([3]; 313.15 K): 1.4621 ± 0.0006; surface tension liquid-gas ([4]; 293.15 K): 42.7 ± 0.6 mN/m; viscosity ([4]; 293.15 K): 1.899 ± 0.018 mPa·s; speed of sound ([4]; 293.15 K): 1567.9 ± 2.9 m/s; mass density ([4]; 293.15 K): 1033.6 ± 0.5 kg/m3; surface tension liquid-gas ([4]; 303.15 K): 41.5 ± 0.6 mN/m and 41.3 ± 0.6 mN/m; viscosity ([4]; 303.15 K): 1.592 ± 0.015 mPa·s; speed of sound ([4]; 303.15 K): 1529.7 ± 2.9 m/s; mass density ([4]; 303.15 K): 1024.7 ± 0.5 kg/m3; surface tension liquid-gas ([4]; 313.15 K): 40.8 ± 0.6 mN/m and 41 ± 0.6 mN/m; viscosity ([4]; 313.15 K): 1.353 ± 0.013 mPa·s; speed of sound ([4]; 313.15 K): 1491.2 ± 2.9 m/s; mass density ([4]; 313.15 K): 1015.7 ± 0.5 kg/m3
C[C@H](O)CN [(2S)-1-amino-2-propanol],,,,,,,,,,,,,,,,1.436 ± 0.0007,35.9 ± 0.6 mN/m,6.961 ± 0.11 mPa·s,1462.9 ± 3.4 m/s,936.5 ± 0.8 kg/m3,refractive index ([3]; 293.15 K): 1.448 ± 0.0007; refractive index ([3]; 303.15 K): 1.4442 ± 0.0007; refractive index ([3]; 313.15 K): 1.4401 ± 0.0007; surface tension liquid-gas ([4]; 293.15 K): 37.6 ± 0.6 mN/m; viscosity ([4]; 293.15 K): 31.67 ± 0.46 mPa·s; speed of sound ([4]; 293.15 K): 1560.8 ± 3.4 m/s; mass density ([4]; 293.15 K): 960.8 ± 0.8 kg/m3; surface tension liquid-gas ([4]; 303.15 K): 36.9 ± 0.6 mN/m; viscosity ([4]; 303.15 K): 17.71 ± 0.29 mPa·s; speed of sound ([4]; 303.15 K): 1528.3 ± 3.4 m/s; mass density ([4]; 303.15 K): 952.8 ± 0.8 kg/m3; surface tension liquid-gas ([4]; 313.15 K): 36.3 ± 0.6 mN/m; viscosity ([4]; 313.15 K): 10.65 ± 0.16 mPa·s; speed of sound ([4]; 313.15 K): 1495.7 ± 3.4 m/s; mass density ([4]; 313.15 K): 944.7 ± 0.8 kg/m3
CC(O)CNCC(C)O (stereo not given) [N-(2-hydroxypropyl)-2-hydroxy-1-propanamine],,,,,,,,,,,,,,,,1.4512 ± 0.0008,34.5 ± 0.6 mN/m,125.73 ± 3.3 mPa·s,1420.3 ± 3.4 m/s,984.1 ± 0.9 kg/m3,
